Measured values: patent US20230416852A1, “METHODS FOR IDENTIFYING COMPOSITIONS FOR INHIBITING VIRAL INFECTIVITY” (priority 2020, published 2023)
Where two headings read alike, the source gives them in different places.

Columns and labels:
[1] = biological target: T1, Vif function of inhibiting A3G CDA (Human immunodeficiency virus type 1 group M subtype B, UniProt P69723); assay: biochemical; assay type: biochemical, HIV-1; conditions: for hit for restoring A3G CDA in the presence of Vif: 10 μM compounds, 20% cutoff stringency, i.e. 20% increase in A3G CDA versus controls, positive control set as 1
T1 sequence (P69723 whole entry): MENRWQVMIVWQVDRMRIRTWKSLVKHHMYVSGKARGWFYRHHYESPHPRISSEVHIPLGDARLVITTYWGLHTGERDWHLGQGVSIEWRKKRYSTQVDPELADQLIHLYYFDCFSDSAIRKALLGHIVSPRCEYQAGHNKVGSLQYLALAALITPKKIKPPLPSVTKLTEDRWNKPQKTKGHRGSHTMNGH
Description: The A3G CDA edits the CCC sequence to predominantly to a CCU sequence. To specifically measure the C to U rate, three reverse primers R1, R2, and R3 were designed in the initial study.
Using the qPCR-based screening assay described in Example 1, the NCI Diversity Set VI, NCI Mech Set V, and NIH SMR were screened against Vif function of inhibiting A3G. The NCI Diversity Set VI was derived from almost 140,000 compounds available for distribution in the library of the NCI Developmental Therapeutics Program. […] The qPCR-based CDA assay was used to screen the libraries in 96-well plates with negative controls (no A3G and Vif), positive control (no Vif), and 10 μM compounds. Hits were selected at 20% cutoff stringency (above 0.2), i.e., 20% increase in A3G CDA versus controls. Any compounds that restored A3G activity by 20% or more were selected. The positive control was set as 1.

[2] = biological target: T1, Vif function of inhibiting A3G CDA; assay type: biochemical, HIV-1
Description: This assay detects C to U mutation using a highly specific Stu I restriction enzyme digestion method. FIG. 4A is a schematic diagram of the PCR and restriction digestion-based CDA assay. CCC-150 is converted to CCU-150 under the enzymatic activity of A3G. […] In the presence of Vif, Vif will inhibit A3G enzymatic activity, so that reduced or no CCU-150 will be produced. Therefore, less or no Stu I cutting sites will form, and no digestion will occur.
The CDA products were subjected to PCR followed by Stu I digestion. The digestion products were applied to a 10% polyacrylamide gel for separation. SYBR Gold was used to visualize the bands. L-Cefixime refers to Compound I identified above.

[3] = tested on: A3G expression, Gag expression and processing; assay: Western blot of A3G stability and Gag in transfected 293T cells; assay type: cell-based; conditions: 5 μM
Protocol: (§1) An A3G expression vector was co-transfected with Vif, or with the empty vector as control. The A3G expression vector was also co-transfected with either a wild-type viral construct HXB2, Vif deficient viral construct HXB2ΔVif, or pcDNA3.1 (as a control) into 293T cells. Immediately following transfection, 5 μM Compound II (redoxal) was used to treat the 293T cells. After 48 hours post-transfection, culture supernatants were subjected to ultracentrifuge to pellet down the virus. Viral lysates were analyzed by Western blot.

HIV in PBMC = conditions: previous report, Pery E et al. Virology 2015; cited from earlier work
HIV IIIB virus = assay: MAGI assay of HIV infectivity in TZM-bl cells; assay type: cell-based, HIV-1; conditions: Human immunodeficiency virus 1, IIIB, 48 h, read-out: IC50 antiviral activity
Description: MAGI assay is a classical method for measuring HIV infectivity (Platt E J et at J Virol 72:2855-2864 (1998)). The assay involves HIV infecting a reporter cell line, the TZM-bl cell line (Platt E J et at J Virol 72:2855-2864 (1998); Derdeyn C A et al. J Virol 74:8358-8367 (2000); Wei X et al. Antimicrob Agents Chemother 46:1896-1905 (2002)). The TZM-bl cell line is a Hela cell derivative that expresses CD4, rendering the cells permissive to HIV-1 infection. These cells also contain an integrated LTR-luciferase and β-galactosidase reporter genes, resulting in expression of firefly luciferase and β-galactosidase protein following HIV-1 integration and subsequent expression of the viral transactivator, Tat.
300 ng of p24 content of HIV IIIB virus was used to infect TZM-bl cells. Different doses of Compound II (redoxal) and C5 were used to treat the infected cells. DMSO treatment was used as a control. Two days post-infection, cells were fixed and β-galactosidase was stained to visualize the infected cells.

[4] = tested on: Vif induced A3G degradation; assay: Western blot of Vif induced A3G degradation in transfected 293T cells; assay type: cell-based; conditions: 5 μM, FIG. 7A
Protocol: as §1, with “quinobene” for “Compound II (redoxal)”

HIV-1 NL4-3-GFP = HIV-1 NL4-3-GFP infection of CEM SS cells (no A3G); assay type: cell-based; conditions: CEM SS cells compared to CEM-GFP cells, FIG. 6B
Protocol: (§2) As discussed above, Vif functions as an inhibitor to A3G antiviral function. […] The A3G-dependent antiviral effects of the hits were tested using CD4+T, CEM-GFP, and CEM SS cell lines. […] The Vif specific inhibitor should show high anti-HIV potency in CEM-GFP cells (and not in CEM SS cells). The CEM-GFP cell line expresses GFP upon HIV infection driven by HIV NL4-3 LTR. It can be used to measure HIV replication (Gervaix A, et at Proc Natl Acad Sci USA. 1997; 94 (9):4653-8.)
In FIG. 6B, HIV-1 NL4-3-GFP was used to infect CEM SS cell line.

A3G viral encapsidation = assay: Western blot of A3G viral encapsidation (viral lysates from 293T cells); assay type: cell-based; conditions: 5 μM, FIG. 7B
Protocol: as §1, with “quinobene” for “Compound II (redoxal)”

[5] = tested on: A3G related G to A hypermutation in HIV-1 viral cDNA; assay: G to A hypermutation analysis of HIV-1 viral cDNA by next-generation sequencing in SupT1 cells; assay type: cell-based; conditions: 1 μM; for average G to A hypermutation rate for each position: average over positions; for average G to A hypermutation rate for each position / G to A hypermutation rate / total G to A hypermutation rate: 6 hours, SupT1, HIV IIIB; for total G to A hypermutation rate: total over all positions
Protocol: The hallmark of A3G antiviral function is to induce G to A hypermutation in HIV cDNA. Therefore, it is very important to evaluate whether quinobene restores A3G's capability to induce G to A hypermutation rates in HIV cDNA. To do this, SupT1 cells were infected with HIV IIIB (350 ng p24)+DMSO or HVI IIIB (350 ng p24)+1 μM quinobene for 6 hours. After infection, DNA was isolated using a DNeasy Blood and Tissue DNA isolation kit (QIAGEN). A 199-bp DNA fragment covering a portion of LTR of HIV-1 was amplified with Taq DNA polymerase using the primers IIIB-F (5′-[…]) and HIV-1-R (5′-[…]). The PCR products were purified by QIAquick PCR Purification Kit (Qiagen) and sent to GENEWIZ, Inc (South Plainfield, NJ) for G to A hypermutation analysis using their Amplicon-EZ service, a next-generation sequencing-based sequencing service, allowed detection of low-frequency variants quantitatively. The G to A hypermutation rate was calculated using CLC Genomic Workbench.

HIV IIIB replication = HIV IIIB replication in A3G-expressing CEM-GFP cells; assay type: cell-based, HIV-1; conditions: Human immunodeficiency virus 1, IIIB, FIG. 6A, read-out: IC50 inhibiting HIV IIIB replication
Protocol: as §2

CEM cells = assay: Presto Blue Cytotoxicity Assay; conditions: read-out: IC50 cytotoxicity, FIG. 6C
Description: In this assay, live cells show 586 nm fluoresce red. The higher the fluorescence, the more viable the cells are. Therefore, 100% cell death should result in no fluorescence.

[6] = biological target: T1, Vif function of inhibiting A3G CDA; assay type: biochemical, HIV-1; conditions: dose-response retest in qPCR-based CDA assay

For `C=CC1=C(C(=O)O)N2C(=O)[C@@H](NC(=O)/C(=N\OCC(=O)O)c3csc(N)n3)[C@H]2SC1` [Compound I, cefixime, reference compound], the EC50 [1] was greater than 500 µM, the “hit for restoring A3G CDA in the presence of Vif” value (“hit for restoring A3G CDA” below) [1] was “hits” and the “restoration of Stu I digestion product” value ([2]; 10 μM) was “dramatically restored the digestion product”.
In the case of `COc1cc(-c2ccc(Nc3ccccc3C(=O)O)c(OC)c2)ccc1Nc1ccccc1C(=O)O` [Compound II, redoxal], the A3G expression ([3]; FIG. 8) is reported as “enhances A3G expression independent of Vif”, the Gag processing patterns ([3]; FIG. 8) is reported as “may alter Gag processing patterns” and the “overall Gag expression” value ([3]; FIG. 8) is reported as “reduces overall Gag expression”. The “overall Gag expression” value ([3]; FIG. 8, listed as redoxal) was “reduced overall Gag expression”, the EC50 [1] was less than 12.5 µM and the “hit for restoring A3G CDA” value [1] was “hits”. For the same molecule, the IC50 (HIV in PBMC) was 600 to 3000 nM, the “restoration of Stu I digestion product” value ([2]; 50 μM) was “dramatically restored the digestion product” and the IC50 (HIV IIIB virus) was less than 4 µM.
For `O=S(=O)(O)c1cc(N=Nc2cc(S(=O)(=O)O)c3cccnc3c2O)ccc1C=Cc1ccc(N=Nc2cc(S(=O)(=O)O)c3cccnc3c2O)cc1S(=O)(=O)O` [Compound IX, quinobene], the “influence on Vif induced A3G degradation” value [4] was “minimal to no influence”, the antiviral function (HIV-1 NL4-3-GFP) was “lost its antiviral function” and the “effects on A3G viral encapsidation” value (A3G viral encapsidation) was “minimal to no effects”. For the same molecule, the “positions showing G to A hypermutation rate increases” value ([5]; 22 out of 26 positions versus untreated) was 84.6%, the “average G to A hypermutation rate for each position” value ([5]; listed as Quino) was 2.32% and the “average G to A hypermutation rate for each position” value ([5]; listed as quinobene) was 2.31%. The “G to A hypermutation rate” value ([5]; position 22) was 5.51%, the “G to A hypermutation rate” value ([5]; position 23) was 0.27% and the “G to A hypermutation rate” value ([5]; position 35) was 1.92%. For the same molecule, the “G to A hypermutation rate” value ([5]; position 36) was 3.87%, the “G to A hypermutation rate” value ([5]; position 37) was 0.43% and the “G to A hypermutation rate” value ([5]; position 47) was 1.84%. The “G to A hypermutation rate” value ([5]; position 48) was 0.38%, the “G to A hypermutation rate” value ([5]; position 51) was 0% and the “G to A hypermutation rate” value ([5]; position 56) was 0.53%. The “G to A hypermutation rate” value ([5]; position 61) was 6.47%, the “G to A hypermutation rate” value ([5]; position 62) was 0% and the “G to A hypermutation rate” value ([5]; position 65) was 5.65%. For the same molecule, the “G to A hypermutation rate” value ([5]; position 68) was 0.38%, the “G to A hypermutation rate” value ([5]; position 71) was 2.13% and the “G to A hypermutation rate” value ([5]; position 72) was 2.1%. The “G to A hypermutation rate” value ([5]; position 73) was 0.28%, the “G to A hypermutation rate” value ([5]; position 78) was 0.28% and the “G to A hypermutation rate” value ([5]; position 126) was 8.57%. For the same molecule, the “G to A hypermutation rate” value ([5]; position 127) was 0.33%, the “G to A hypermutation rate” value ([5]; position 136) was 1.39% and the “G to A hypermutation rate” value ([5]; position 157) was 8.43%. The “G to A hypermutation rate” value ([5]; position 158) was 0.19%, the “G to A hypermutation rate” value ([5]; position 168) was 0.6% and the “G to A hypermutation rate” value ([5]; position 177) was 4.16%. For the same molecule, the “G to A hypermutation rate” value ([5]; position 178) was 2.37%, the “total G to A hypermutation rate” value ([5]; listed as Quino) was 58.08% and the “total G to A hypermutation rate” value ([5]; listed as quinobene) was 58%. For the same molecule, the “hit for restoring A3G CDA” value [1] was “hits and hit”, the “restoration of Stu I digestion product” value ([2]; 5 uM) was “dramatically restored the digestion product” and the IC50 (HIV IIIB replication) was less than 750 nM. For the same molecule, the IC50 (CEM cells) was roughly 50 µM.
With `Cn1c(SCc2ccccn2)nc2c1c(=O)[nH]c(=O)n2C` [Compound VII] the “hit for restoring A3G CDA” value [1] was “hits”.
With `Oc1ccccc1-c1nc2c3ccccc3c3ccccc3c2[nH]1` [Compound VI] the “hit for restoring A3G CDA” value [1] was “hits”.
With `O=c1c2ccccc2ncn1-c1ccc(Cl)cc1` [Compound V] the “hit for restoring A3G CDA” value [1] was “hits”.
For `O=c1c(-c2ccc(O)cc2)coc2cc(O)cc(O)c12` [III, genistein], the “hit for restoring A3G CDA” value [1] was “hits” and the activity in retest [6] was “did not show any activity”.
With `C[C@@H]1C/C=C/C=C/C=C/C=C/[C@H](O[C@@H]2O[C@H](C)[C@@H](O)[C@H](N)[C@@H]2O)C[C@@H]2O[C@](O)(C[C@@H](O)C[C@H]3O[C@@H]3/C=C/C(=O)O1)C[C@H](O)[C@H]2C(=O)O` [IV, natamycin, reference compound] the “hit for restoring A3G CDA” value [1] was “hits” and the activity in retest [6] was “did not show any activity”.
